Tested on: C57Bl/6J (hIGF1R, Apc^Min/+) mice
Assay: Inhibition of polyposis in human IGF1R knock-in Apc Min/+ mice (adenoma number and diameter scored at postnatal day 80)
Assay type: in vivo
Details: small intestine and colon, 19D12 0.02, 0.1, 0.5 mg/mouse i.p. once a week, celecoxib 150, 500, 1500 ppm in diet
Source text: In this example, the ability of anti-IGF1R antibody 19D12 (LCF/HCA: amino acids 20-128 of SEQ ID NO: 8 and 20-137 of SEQ ID NO: 10) to treat familial adenomatous polyposis (FAP) is established in a mouse model for the disease. The model comprises the Apc^Min/+ allele which imparts the FAP phenotype. A phenotype that results from the allele is increased development of intestinal adenomas. The Min mutant mouse has an autosomal dominant heterozygous nonsense mutation in the mouse Apc gene (see e.g., Su et al., Science (Wash D.C.) 256: 668-670 (1992)).
The Min mice are also engineered, by a knock-in mutation, to express the human IGF1R gene. Expression of the IGF1R gene, in the Min mouse, allows determination of the ability of an anti-IGF1R antibody to alleviate the FAP phenotype. […]
Small intestinal adenomas and colonic adenomas are scored for number and diameter at postnatal day 80. […] Small intestine surface area is calculated by summation of the multiples of length of each fixed segment by width, which is measured at the midpoint of each segment. Colon surface area is calculated by multiplying the length of the fixed material from the anorectal junction to the point of insertion of the small intestine, omitting the appendix, by the width at the midpoint. Raw numbers of adenomas observed as well as adenomas per unit of small intestine and colon surface area are calculated.

19D12 (LCF/HCA): anti-IGF1R antibody 19D12 (LCF/HCA: amino acids 20-128 of SEQ ID NO: 8 and 20-137 of SEQ ID NO: 10)
adenomas per unit surface area: dose-dependent reduction | raw adenoma number: dose-dependent reduction
